Broadly, the Ki is the equilibrium dissociation constant of an inhibitor or competing ligand from its target. Lower therefore signals tighter binding.

One test has as its target T1, Serine protease 1 (Bos taurus, UniProt P00760).
T1 sequence (P00760 whole entry): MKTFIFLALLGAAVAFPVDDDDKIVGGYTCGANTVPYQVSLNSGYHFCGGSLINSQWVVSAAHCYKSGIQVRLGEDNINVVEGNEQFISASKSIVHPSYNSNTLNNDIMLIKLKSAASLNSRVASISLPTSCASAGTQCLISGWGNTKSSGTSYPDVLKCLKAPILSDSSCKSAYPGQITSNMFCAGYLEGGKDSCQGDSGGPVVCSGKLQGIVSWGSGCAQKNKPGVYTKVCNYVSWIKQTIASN
Kind of test: Compound was evaluated for its inhibitory activity against bovine trypsin.

The target in the next test is Prothrombin (Homo sapiens, UniProt P00734). The experiment in a line: Compound was evaluated for its inhibitory activity against human thrombin.

Turning to `CN(C(=O)[C@H](Cc1ccc(C(=N)N)cc1)NS(=O)(=O)c1ccc2ccccc2c1)C1CCCC1`, the Ki on Serine protease 1 was found to be 16.2 µM; at Prothrombin, 0.0068 µM.
As for `CCCc1ccc(S(=O)(=O)N[C@@H](Cc2ccc(C(=N)N)cc2)C(=O)N(C)C2CCCC2)cc1`, the figures for the Ki on Serine protease 1 and at Prothrombin were 2.44 µM and 0.00084 µM, respectively.
`COc1ccc2cc(S(=O)(=O)N[C@@H](Cc3ccc(C(=N)N)s3)C(=O)N(C)C3CCCC3)ccc2c1`: the Ki was determined as 0.134 µM on Serine protease 1 and 0.00049 µM on Prothrombin.
As for `CCCc1ccc(S(=O)(=O)N[C@@H](Cc2ccc(C(=N)N)s2)C(=O)N(C)C2CCCC2)cc1`, the Ki on Serine protease 1 came out at 0.15 µM; on Prothrombin, 0.0006 µM.
At Prothrombin, `CN(C(=O)[C@H](Cc1ccc(C(=N)NN)s1)NS(=O)(=O)c1ccc2ccccc2c1)C1CCCC1` registered a Ki of 0.091 µM.
`CN(C(=O)[C@H](Cc1ccc(C(=N)N)s1)NS(=O)(=O)c1ccc2ccccc2c1)C1CCCC1`: the Ki on Serine protease 1 is 0.153 µM; at Prothrombin, 0.003 µM.

The record behind these values is ChEMBL document CHEMBL1130864, “Potent and efficacious thienylamidine-incorporated thrombin inhibitors” (Bioorg Med Chem Lett, 1998).
